Patent US20260262643A1, “HERBICIDAL BENZOXAZINES” (FMC CORPORATION, priority 2022, published 2026)

Experiments:
oat, wild [1] = experiment: Test C preemergence; format: in vivo, Avena fatua
Outline: (§1)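 Soil-applied (pre) and foliar (post, 1–2 leaf, 2–10 cm) sprays; surfactant-containing non-phytotoxic solvent vehicle; loam/sand substrate. Readout: visual % control at 10 d, greenhouse, versus untreated.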

soybean [2] = experiment: Test C postemergence; format: in vivo, Glycine max; conditions: 10 days, 0 to 100 scale (0 no effect, 100 complete control)
Outline: as §1

pigweed, palmer [3] = experiment: Test C postemergence; format: in vivo, Amaranthus palmeri; conditions: 10 days, 0 to 100 scale (0 no effect, 100 complete control)
Outline: as §1

ryegrass, Italian [4] = experiment: Test C preemergence; format: in vivo, Lolium multiflorum
Outline: as §1

galium = experiment: Test C postemergence; format: in vivo, Galium aparine; conditions: 10 days, 0 to 100 scale (0 no effect, 100 complete control)
Outline: as §1

blackgrass [5] = experiment: Test C preemergence; format: in vivo, Alopecurus myosuroides
Outline: as §1

pigweed, palmer [6] = experiment: Test C preemergence; format: in vivo, Amaranthus palmeri
Outline: as §1

horseweed = experiment: Test C postemergence; format: in vivo, Erigeron canadensis; conditions: 10 days, 0 to 100 scale (0 no effect, 100 complete control)
Outline: as §1

foxtail, giant [7] = experiment: Test C preemergence; format: in vivo, Setaria faberi
Outline: as §1

rice = experiment: Test D flooded paddy test; format: in vivo, Oryza sativa; conditions: 250 g ai/ha, applied to paddy water, visual rating after 13 to 14 days, scale 0 to 100 (0 no effect, 100 complete control)
Outline: (§2)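 Plants at the 2-leaf stage were grown in pots flooded to 3 cm, and compound was applied directly into the paddy water, with depth kept throughout. After 13–14 days in a greenhouse, injury was rated visually against untreated controls on a 0–100 scale (100 = complete control); a dash means not tested.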

corn [8] = experiment: Test C preemergence; format: in vivo, Zea mays
Outline: as §1

barnyardgrass [9] = experiment: Test D flooded paddy test; format: in vivo, Echinochloa crus-galli; conditions: 250 g ai/ha, applied to paddy water, visual rating after 13 to 14 days, scale 0 to 100 (0 no effect, 100 complete control)
Outline: as §2

sedge, umbrella = experiment: Test D flooded paddy test; format: in vivo, Cyperus difformis; conditions: 250 g ai/ha, applied to paddy water, visual rating after 13 to 14 days, scale 0 to 100 (0 no effect, 100 complete control)
Outline: as §2

barnyardgrass [10] = experiment: Test C preemergence; format: in vivo, Echinochloa crusgalli
Outline: as §1

kochia [11] = experiment: Test C preemergence; format: in vivo, Bassia scoparia
Outline: as §1

soybean [12] = experiment: Test C preemergence; format: in vivo, Glycine max
Outline: as §1

blackgrass [13] = experiment: Test C postemergence; format: in vivo, Alopecurus myosuroides; conditions: 10 days, 0 to 100 scale (0 no effect, 100 complete control)
Outline: as §1

foxtail, giant [14] = experiment: Test C postemergence; format: in vivo, Setaria faberi; conditions: 10 days, 0 to 100 scale (0 no effect, 100 complete control)
Outline: as §1

wheat [15] = experiment: Test C preemergence; format: in vivo, Triticum aestivum
Outline: as §1

ryegrass, Italian [16] = experiment: Test C postemergence; format: in vivo, Lolium multiflorum; conditions: 10 days, 0 to 100 scale (0 no effect, 100 complete control)
Outline: as §1

corn [17] = experiment: Test C postemergence; format: in vivo, Zea mays; conditions: 10 days, 0 to 100 scale (0 no effect, 100 complete control)
Outline: as §1

barnyardgrass [18] = experiment: Test C postemergence; format: in vivo, Echinochloa crusgalli; conditions: 10 days, 0 to 100 scale (0 no effect, 100 complete control)
Outline: as §1

ducksalad = experiment: Test D flooded paddy test; format: in vivo, Heteranthera limosa; conditions: 250 g ai/ha, applied to paddy water, visual rating after 13 to 14 days, scale 0 to 100 (0 no effect, 100 complete control)
Outline: as §2

kochia [19] = experiment: Test C postemergence; format: in vivo, Bassia scoparia; conditions: 10 days, 0 to 100 scale (0 no effect, 100 complete control)
Outline: as §1

oat, wild [20] = experiment: Test C postemergence; format: in vivo, Avena fatua; conditions: 10 days, 0 to 100 scale (0 no effect, 100 complete control)
Outline: as §1

wheat [21] = experiment: Test C postemergence; format: in vivo, Triticum aestivum; conditions: 10 days, 0 to 100 scale (0 no effect, 100 complete control)
Outline: as §1

ragweed [22] = experiment: Test C preemergence; format: in vivo, Ambrosia artemisiifolia; conditions: Preemergence, 125 g ai/ha; 0 to 100 scale, 0 no effect, 100 complete control
Outline: as §1

ragweed [23] = experiment: Test C postemergence; format: in vivo, Ambrosia artemisiifolia; conditions: 10 days, 0 to 100 scale (0 no effect, 100 complete control)
Outline: as §1

[24] = 500 g ai/ha, preemergence, 0 to 100 scale (0 no effect, 100 complete control)
[25] = Preemergence, 125 g ai/ha, 0 to 100 scale, 0 no effect, 100 complete control

CC(C)(C)c1ncn(-c2cc(C(=O)N3CC(C(F)(F)F)Oc4c(Cl)cccc43)ccn2)n1 (stereo not drawn) [Compound 322]
90: Plant response rating, Pigweed, Palmer (pigweed, palmer [3]; 500 g ai/ha, postemergence) | Pigweed, Palmer plant response rating (pigweed, palmer [6]; [24]) | Plant response rating, Foxtail, Giant (foxtail, giant [7]; [25]) | Barnyardgrass plant response rating (barnyardgrass [10]; [24]) | Plant response rating, Foxtail, Giant (foxtail, giant [14]; 500 g ai/ha, postemergence)
0: Plant response rating, Oat, Wild (oat, wild [1]; [25]) | Plant response rating, Horseweed (horseweed; 500 g ai/ha, postemergence) | Plant response rating, Horseweed (horseweed; Postemergence, 125 g ai/ha) | Plant response rating, Rice (Flood) (rice) | Plant response rating, Barnyardgrass (Flood) (barnyardgrass [9]) | Plant response rating, Sedge, Umbrella (Flood) (sedge, umbrella) | Plant response rating, Soybean (soybean [12]; [25]) | Plant response rating, Wheat (wheat [15]; [25]) | Plant response rating, Ducksalad (Flood) (ducksalad) | Plant response rating, Oat, Wild (oat, wild [20]; Postemergence, 125 g ai/ha) | Plant response rating, Ragweed (ragweed [22])
20: Plant response rating, Kochia (kochia [11]; [25]) | Wheat plant response rating (wheat [15]; [24]) | Plant response rating, Ryegrass, Italian (ryegrass, Italian [16]; Postemergence, 125 g ai/ha) | Plant response rating, Wheat (wheat [21]; 500 g ai/ha, postemergence) | Plant response rating, Wheat (wheat [21]; Postemergence, 125 g ai/ha)
30: Oat, Wild plant response rating (oat, wild [1]; [24]) | Corn plant response rating (corn [8]; [24]) | Plant response rating, Corn (corn [8]; [25]) | Plant response rating, Oat, Wild (oat, wild [20]; 500 g ai/ha, postemergence)
60: Plant response rating, Soybean (soybean [2]; Postemergence, 125 g ai/ha) | Plant response rating, Ryegrass, Italian (ryegrass, Italian [4]; [25]) | Plant response rating, Kochia (kochia [19]; Postemergence, 125 g ai/ha)
50: Plant response rating, Pigweed, Palmer (pigweed, palmer [3]; Postemergence, 125 g ai/ha) | Plant response rating, Foxtail, Giant (foxtail, giant [14]; Postemergence, 125 g ai/ha) | Plant response rating, Barnyardgrass (barnyardgrass [18]; 500 g ai/ha, postemergence) | Plant response rating, Ragweed (ragweed [23]; 500 g ai/ha, postemergence)
10: Plant response rating, Blackgrass (blackgrass [13]; Postemergence, 125 g ai/ha) | Plant response rating, Corn (corn [17]; 500 g ai/ha, postemergence) | Plant response rating, Corn (corn [17]; Postemergence, 125 g ai/ha)
100: Plant response rating, Soybean (soybean [2]; 500 g ai/ha, postemergence) | Foxtail, Giant plant response rating (foxtail, giant [7]; [24])
40: Blackgrass plant response rating (blackgrass [5]; [24]) | Plant response rating, Blackgrass (blackgrass [5]; [25]) | Plant response rating, Pigweed, Palmer (pigweed, palmer [6]; [25]) | Plant response rating, Barnyardgrass (barnyardgrass [10]; [25]) | Kochia plant response rating (kochia [11]; [24]) | Plant response rating, Blackgrass (blackgrass [13]; 500 g ai/ha, postemergence) | Plant response rating, Ryegrass, Italian (ryegrass, Italian [16]; 500 g ai/ha, postemergence) | Plant response rating, Barnyardgrass (barnyardgrass [18]; Postemergence, 125 g ai/ha) | Plant response rating, Ragweed (ragweed [23]; Postemergence, 125 g ai/ha)
80: Ryegrass, Italian plant response rating (ryegrass, Italian [4]; [24]) | Plant response rating, Kochia (kochia [19]; 500 g ai/ha, postemergence)
70: Plant response rating, Galium (galium; 500 g ai/ha, postemergence) | Plant response rating, Galium (galium; Postemergence, 125 g ai/ha) | Soybean plant response rating (soybean [12]; [24])
